From article PMC7830743 (Journal of medicinal chemistry, 2020)
pIC50: −log10 of the molar value.

Assays:
A673 cells [1] = test: Cytotoxicity assay in A673 cells; assay type: cell-based, human; details: for pIC50: Homo sapiens, A673, 48 h, read-out: A673 cells Cytotox. IC50
A673 cells [2] = test: Cellular lactate production assay in A673 cells; assay type: cell-based, human; details: for pIC50: Homo sapiens, A673, 0.5 h, read-out: A673 cells lactate inh. IC50
[3] = biological target: LDHA with C-terminal HiBiT fusion tag (Homo sapiens, UniProt P00338); test: SplitLuc CETSA; assay type: cell-based
MiaPaCa-2 cells [4] = test: Cellular lactate production assay in MiaPaCa-2 cells; assay type: cell-based; details: Homo sapiens, MIA PaCa-2, 0.5 h, read-out: MiaPaCa-2 cells lactate inh. IC50
MiaPaCa-2 cells [5] = test: Cytotoxicity assay in MiaPaCa-2 cells; assay type: cell-based; details: Homo sapiens, MIA PaCa-2, 48 h, read-out: MiaPaCa-2 cells Cytotox. IC50
LDHA = LDHA (Homo sapiens, UniProt P00338); test: Biochemical LDHA inhibition assay
[6] = Mouse pharmacokinetic studies; assay type: in vivo, CD1 mice; details: male, CD1, mouse, plasma, iv, 10 mg/kg
[7] = test system: tumor LDH activity (A673 flank xenograft); test: In vivo LDHA activity in A673 xenograft tumor mouse model; details: single IV 50 mg/kg, A673 xenograft mice
[8] = both cell lines (A673 and MiaPaCa-2)

With `C#Cc1cc(-c2nn(-c3nc(C(=O)O)cs3)c(CC3CC3)c2Cc2ccc(S(N)(=O)=O)c(F)c2)ccc1F` [Compound 11, 2-(5-(Cyclopropylmethyl)-3-(3-ethynyl-4-fluorophenyl)-4-(3-fluoro-4-sulfamoylbenzyl)-1H-pyrazol-1-yl)thiazole-4-carboxylic Acid] the “loss in potency in cytotoxicity relative to 10” value (A673 cells [1]; [8]) was < 3 fold and the “loss in potency toward lactate output relative to 10” value (A673 cells [2]; [8]) was < 2 fold.
For `NS(=O)(=O)c1ccc(Cc2c(-c3ccc(F)c(C#CC4(F)CCCC4)c3)nn(-c3nc(C(=O)O)cs3)c2CC2CC2)cc1F` [Compound 24, 2-(5-(Cyclopropylmethyl)-3-(4-fluoro-3-((1-fluorocyclopentyl)-ethynyl)phenyl)-4-(3-fluoro-4-sulfamoylbenzyl)-1H-pyrazol-1-yl)-thiazole-4-carboxylic Acid], the pIC50 [3] was 7.02, the pIC50 (MiaPaCa-2 cells [4]) was 6.34 and the pIC50 (A673 cells [1]) was 6.16. The pIC50 (MiaPaCa-2 cells [5]) was 6.23, the pIC50 (A673 cells [2]) was 6.35 and the pIC50 (LDHA) was 7.48.
With `NS(=O)(=O)c1ccc(Cc2c(-c3ccc(F)c(C#CC4(O)CCCC4)c3)nn(-c3nc(C(=O)O)cs3)c2CC2CC2)cc1F` [Compound 25, 2-(5-(Cyclopropylmethyl)-3-(4-fluoro-3-((1-hydroxycyclopentyl)-ethynyl)phenyl)-4-(3-fluoro-4-sulfamoylbenzyl)-1H-pyrazol-1-yl)-thiazole-4-carboxylic Acid] the pIC50 [3] was 6.82, the pIC50 (MiaPaCa-2 cells [4]) was 5.83 and the pIC50 (A673 cells [1]) was 5.66. The pIC50 (MiaPaCa-2 cells [5]) was 5.66, the pIC50 (A673 cells [2]) was 5.71 and the pIC50 (LDHA) was 8.15.
For `NS(=O)(=O)c1ccc(Cc2c(-c3ccc(F)c(C#CC4(F)COC4)c3)nn(-c3nc(C(=O)O)cs3)c2CC2CC2)cc1F` [Compound 27, 2-(5-(Cyclopropylmethyl)-3-(4-fluoro-3-((3-fluorooxetan-3-yl)-ethynyl)phenyl)-4-(3-fluoro-4-sulfamoylbenzyl)-1H-pyrazol-1-yl)-thiazole-4-carboxylic Acid], the pIC50 [3] was 6.90, the pIC50 (MiaPaCa-2 cells [4]) was 5.98 and the pIC50 (A673 cells [1]) was 5.58. For the same compound, the pIC50 (MiaPaCa-2 cells [5]) was 5.65, the pIC50 (A673 cells [2]) was 5.88 and the pIC50 (LDHA) was 8.15.
With `NS(=O)(=O)c1ccc(Cc2c(-c3ccc(F)c(C#CC4(O)COC4)c3)nn(-c3nc(C(=O)O)cs3)c2CC2CC2)cc1F` [Compound 28, 2-(5-(Cyclopropylmethyl)-3-(4-fluoro-3-((3-hydroxyoxetan-3-yl)-ethynyl)phenyl)-4-(3-fluoro-4-sulfamoylbenzyl)-1H-pyrazol-1-yl)-thiazole-4-carboxylic Acid] the pIC50 [3] was 5.82, the pIC50 (MiaPaCa-2 cells [4]) was 5.31 and the pIC50 (A673 cells [1]) was 5.45. For the same compound, the pIC50 (MiaPaCa-2 cells [5]) was 5.52, the pIC50 (A673 cells [2]) was 4.91 and the pIC50 (LDHA) was 8.22.
In the case of `Cc1ccc(C#Cc2cc(-c3nn(-c4nc(C(=O)O)cs4)c(CC4CC4)c3Cc3ccc(S(N)(=O)=O)c(F)c3)ccc2F)o1` [Compound 44, 2-(5-(Cyclopropylmethyl)-3-(4-fluoro-3-((5-methylfuran-2-yl)-ethynyl)phenyl)-4-(3-fluoro-4-sulfamoylbenzyl)-1H-pyrazol-1-yl)-thiazole-4-carboxylic Acid], the clearance at 24 h [6] was 75 mL/min/kg.
Work on `Cc1ncc(C#Cc2cc(-c3nn(-c4nc(C(=O)O)cs4)c(CC4CC4)c3Cc3ccc(S(N)(=O)=O)c(F)c3)ccc2F)s1` [Compound 46, 2-(5-(Cyclopropylmethyl)-3-(4-fluoro-3-((2-methylthiazol-5-yl)-ethynyl)phenyl)-4-(3-fluoro-4-sulfamoylbenzyl)-1H-pyrazol-1-yl)-thiazole-4-carboxylic Acid] yielded a clearance at 24 h [6] of 97 mL/min/kg.
In the case of `NS(=O)(=O)c1ccc(Cc2c(-c3cccc(C#Cc4ccc(C5CC5)s4)c3)nn(-c3nc(C(=O)O)cs3)c2CC2CC2)cc1F` [Compound 56, 2-(5-(Cyclopropylmethyl)-3-(3-((5-cyclopropylthiophen-2-yl)-ethynyl)phenyl)-4-(3-fluoro-4-sulfamoylbenzyl)-1H-pyrazol-1-yl)-thiazole-4-carboxylic Acid], the “effect on LDH activity in tumors (in words)” value (shortened to “effect on LDH activity”) [7] was “moderate inhibition” and the “inhibition of tumor LDH activity at 6 h postdose” value ([7]; 6 h) was “failed to maintain significant inhibition”.
Compound `Cc1ccc(C#Cc2cccc(-c3nn(-c4nc(C(=O)O)cs4)c(CC4CC4)c3Cc3ccc(S(N)(=O)=O)c(F)c3)c2)o1` [Compound 61, 2-(5-(Cyclopropylmethyl)-4-(3-fluoro-4-sulfamoylbenzyl)-3-(3-((5-methylfuran-2-yl)ethynyl)phenyl)-1H-pyrazol-1-yl)thiazole-4-carboxylic Acid] has a clearance at 24 h [6] of 72.3 mL/min/kg.
For `NS(=O)(=O)c1ccc(Cc2c(-c3ccc(F)c(/C=C/C4CCCC4)c3)nn(-c3nc(C(=O)O)cs3)c2CC2CC2)cc1F` [Compound 69, (E)-2-(3-(3-(2-Cyclopentylvinyl)-4-fluorophenyl)-5-(cyclopropylmethyl)-4-(3-fluoro-4-sulfamoylbenzyl)-1H-pyrazol-1-yl)thiazole-4-carboxylic Acid], the clearance at 24 h [6] was 74.7 mL/min/kg and the “effect on LDH activity” value [7] was “less effects”.
With `C/C=C/c1cc(-c2nn(-c3nc(C(=O)O)cs3)c(CC3CC3)c2Cc2ccc(S(N)(=O)=O)c(F)c2)ccc1F` [Compound 71, (E)-2-(5-(Cyclopropylmethyl)-3-(4-fluoro-3-(prop-1-en-1-yl)phenyl)-4-(3-fluoro-4-sulfamoylbenzyl)-1H-pyrazol-1-yl)thiazole-4carboxylic Acid] the “effect on LDH activity” value [7] was “less effects”.
For `C=C(c1cc(-c2nn(-c3nc(C(=O)O)cs3)c(CC3CC3)c2Cc2ccc(S(N)(=O)=O)c(F)c2)ccc1F)C(F)(F)F` [Compound 73, 2-(5-(Cyclopropylmethyl)-3-(4-fluoro-3-(3,3,3-trifluoroprop-1-en-2-yl)phenyl)-4-(3-fluoro-4-sulfamoylbenzyl)-1H-pyrazol-1-yl)-thiazole-4-carboxylic Acid], the pIC50 [3] was 6.40, the pIC50 (MiaPaCa-2 cells [4]) was 6.01 and the pIC50 (A673 cells [1]) was 4.80. The pIC50 (A673 cells [2]) was 6.15 and the pIC50 (LDHA) was 7.41.
In the case of `Cc1ccc(C#Cc2cc(-c3nn(-c4nc(C(=O)O)cs4)c(CCC4CC4)c3Cc3ccc(S(N)(=O)=O)c(F)c3)ccc2F)s1` [Compound 74, 2-(5-(2-Cyclopropylethyl)-3-(4-fluoro-3-((5-methylthiophen-2yl)ethynyl)phenyl)-4-(3-fluoro-4-sulfamoylbenzyl)-1H-pyrazol-1-yl)thiazole-4-carboxylic Acid], the AUC(0-t) [6] was 6650 ng·h/mL, the clearance [6] was 74.7 mL/min/kg and the “effect on LDH activity” value [7] was “moderate inhibition”.
`Cc1ccc(C#Cc2cccc(-c3nn(-c4nc(C(=O)O)cs4)c(CCC4CC4)c3Cc3ccc(S(N)(=O)=O)c(F)c3)c2)s1` [Compound 75, 2-(5-(2-Cyclopropylethyl)-4-(3-fluoro-4-sulfamoylbenzyl)-3-(3-((5-methylthiophen-2-yl)ethynyl)phenyl)-1H-pyrazol-1-yl)thiazole-4-carboxylic Acid] gave a clearance at 24 h [6] of 18.6 mL/min/kg.
`Cc1cc(C#Cc2cccc(-c3nn(-c4nc(C(=O)O)cs4)c(CCC4CC4)c3Cc3ccc(S(N)(=O)=O)c(F)c3)c2)cs1` [Compound 77, 2-(5-(2-Cyclopropylethyl)-4-(3-fluoro-4-sulfamoylbenzyl)-3-(3-((5-methylthiophen-3-yl)ethynyl)phenyl)-1H-pyrazol-1-yl)thiazole-4-carboxylic Acid] gave a pIC50 [3] of 6.85, a pIC50 (MiaPaCa-2 cells [4]) of 6.60 and a pIC50 (A673 cells [1]) of 6.71. For the same compound, the pIC50 (A673 cells [2]) was 6.36 and the pIC50 (LDHA) was 6.80.
Work on `Cc1ccc(C#Cc2cccc(-c3nn(-c4nc(C(=O)O)cs4)c(C(C)C4CC4)c3Cc3ccc(S(N)(=O)=O)c(F)c3)c2)s1` (stereo not shown) [Compound 84, 2-(5-(1-Cyclopropylethyl)-4-(3-fluoro-4-sulfamoylbenzyl)-3-(3-((5-methylthiophen-2-yl)ethynyl)phenyl)-1H-pyrazol-1-yl)thiazole-4-carboxylic Acid] yielded a pIC50 [3] of 6.15, a pIC50 (MiaPaCa-2 cells [4]) of 5.99 and a pIC50 (A673 cells [1]) of 6.01. The pIC50 (A673 cells [2]) was 6.16 and the pIC50 (LDHA) was 6.06.
Compound `Cc1ccc(C#Cc2cccc(-c3nn(-c4nc(C(=O)O)cs4)c(C(C)(C)C4CC4)c3Cc3ccc(S(N)(=O)=O)c(F)c3)c2)s1` [Compound 85, 2-(5-(2-Cyclopropylpropan-2-yl)-4-(3-fluoro-4-sulfamoylbenzyl)-3-(3-((5-methylthiophen-2-yl)ethynyl)phenyl)-1H-pyrazol-1-yl)-thiazole-4-carboxylic Acid] has a pIC50 [3] of 4.97, a pIC50 (MiaPaCa-2 cells [4]) of 5.29 and a pIC50 (A673 cells [1]) of 5.23. For the same compound, the pIC50 (A673 cells [2]) was 4.74 and the pIC50 (LDHA) was 5.34.
Work on `Cc1ccc(C#Cc2cccc(-c3nn(-c4nc(C(=O)O)cs4)c(CC4(C)CC4)c3Cc3ccc(S(N)(=O)=O)c(F)c3)c2)s1` [Compound 86, 2-(4-(3-Fluoro-4-sulfamoylbenzyl)-5-((1-methylcyclopropyl)-methyl)-3-(3-((5-methylthiophen-2-yl)ethynyl)phenyl)-1H-pyrazol-1-yl)thiazole-4-carboxylic Acid] yielded a pIC50 [3] of 6.60, a pIC50 (MiaPaCa-2 cells [4]) of 6.39 and a pIC50 (A673 cells [1]) of 6.23. It also gave a pIC50 (A673 cells [2]) of 6.46 and a pIC50 (LDHA) of 6.51.
Work on `Cc1ccc(C#Cc2cccc(-c3nn(-c4nc(C(=O)O)cs4)c(C4CC4C4CC4)c3Cc3ccc(S(N)(=O)=O)c(F)c3)c2)s1` (stereo not shown) [Compound 88, 2-(5-([1,1′-Bi(cyclopropan)]-2-yl)-4-(3-fluoro-4-sulfamoylbenzyl)-3-(3-((5-methylthiophen-2-yl)ethynyl)phenyl)-1H-pyrazol-1-yl)thiazole-4-carboxylic Acid] yielded a pIC50 [3] of 5.99, a pIC50 (MiaPaCa-2 cells [4]) of 6.29 and a pIC50 (A673 cells [1]) of 5.33. For the same compound, the pIC50 (A673 cells [2]) was 6.44 and the pIC50 (LDHA) was 5.93.
In the case of `Cc1ccc(C#Cc2cccc(-c3nn(-c4nc(C(=O)O)cs4)c(C(C4CC4)C4CC4)c3Cc3ccc(S(N)(=O)=O)c(F)c3)c2)s1` [Compound 89, 2-(5-(Dicyclopropylmethyl)-4-(3-fluoro-4-sulfamoylbenzyl)-3-(3-((5-methylthiophen-2-yl)ethynyl)phenyl)-1H-pyrazol-1-yl)thiazole-4-carboxylic Acid], the pIC50 [3] was 5.50, the pIC50 (MiaPaCa-2 cells [4]) was 5.91 and the pIC50 (A673 cells [1]) was 4.58. It also gave a pIC50 (A673 cells [2]) of 5.73 and a pIC50 (LDHA) of 5.28.
